Results taken from publication PMC8279981, “A first-in-human, phase 1 study of the NEDD8 activating enzyme E1 inhibitor TAS4464 in patients with advanced solid tumors” (Investigational New Drugs, 2021).

Experiments:
[1] = system: patients with advanced or metastatic solid tumors; experiment: Phase 1 study: dose-limiting toxicities and maximum tolerated dose; type: in vivo
Procedure: The highest non-severely toxic dose was derived from a dog toxicology study and was used to calculate a clinical starting dose of 10 mg/m^2, which corresponds to one-sixth of the human-equivalent dose. The maximum tolerated dose (MTD) of TAS4464 was investigated using an accelerated titration design. Initially, the starting TAS4464 dose was 10 mg/m^2 and was followed by an initial accelerated stage (i.e., weekly dosing phase) with 100% dose-step increments (level 1: 10 mg/m^2, level 2: 20 mg/m^2, level 3: 40 mg/m^2, and level 4: 56 mg/m^2). The 100% dose-step increments continued until the occurrence of a grade ≥ 2 drug-related toxicity within Cycle 1; dose-limiting toxicity (DLT) within Cycle 1; the next dose level reaching 60 mg/m^2; or any safety concerns. Thereafter, 40% increments were employed in the standard stage.
In the standard stage, three to six patients were to be enrolled, and the dose was escalated in 40% increments if none of the first three patients experienced a DLT. If one patient experienced a DLT, three additional patients were to be enrolled at the same dose level. If two of three or two of six patients experienced a DLT, the dose escalation was to be ceased. […] Additionally, DLT criteria regarding abnormal liver function and discontinuation criteria for study drug administration were added. The TAS4464 dose level for Day 1 of Cycle 1 was then set to 40 mg/m^2 (level 3).
The primary objective of the study was to investigate DLTs. Treatment-related adverse events (AEs) during the lead-in period and Cycle 1 were included in the assessment of DLT, which was defined as follows: 1) grade 4 neutropenia lasting >7 days or neutropenia requiring treatment; 2) grade 4 thrombocytopenia or thrombocytopenia requiring blood transfusion; 3) febrile neutropenia; 4) grade ≥ 3 nausea, vomiting, or diarrhea lasting >48 h and uncontrolled by treatment; 5) grade ≥ 3 aspartate aminotransferase (AST) increase or alanine aminotransferase (ALT) increase lasting ≥3 days; or 6) any other grade ≥ 3 non-hematologic toxicity.

[2] = Plasma pharmacokinetics of TAS4464 in patients; type: in vivo, human
Procedure: (§1) The PK endpoints included maximum plasma concentration (Cmax), area under the concentration–time curve from time zero up to the last observable concentration (AUC0-last) and plasma accumulation of TAS4464 after multiple doses. PK parameters were evaluated on Day 1 of Cycle 1 and Day 15 of Cycle 1 in the weekly dosing cohort, as well as on Day 1 of the lead-in period and Day 1 of Cycle 1 in the weekly with lead-in dosing cohort. The evaluation of the relationship between solute carrier organic anion transporter family member 1B1 (SLCO1B1) genetic polymorphisms and PK (i.e., the mean and individual clearance [CL] and volume of distribution at steady-state [Vdss] by each OATP1B1 phenotype) was assessed as the PGx analysis endpoint.
The analysis populations included in the study are summarized in the Supplementary Appendix. DLTs were recorded by incidence and 95% confidence intervals (CI). Median PFS and 95% CIs were calculated using Kaplan–Meier methodology. Best overall response was tabulated, and the ORR and DCR with 95% CIs were calculated by dose level. PK parameters were evaluated using non-compartmental methods. For the pharmacodynamic parameter of cullin-NEDD8 in PBMC, summary statistics and a scatter plot of the percentage change from baseline were produced. Missing data were not imputed. […] SAS software v9.4 (SAS Institute Inc., Cary NC, USA) was used for all statistical processing.

[3] = system: OATP1B1; experiment: Pharmacogenomics: SLCO1B1 polymorphisms versus PK; type: in vivo, human; settings: phenotype assigned by SLCO1B1 genotypes; data not shown
Procedure: as §1

[4] = system: cullin-NEDD8 complexes in PBMC; experiment: Cullin-NEDD8 protein in PBMC by ELISA; type: in vivo, human
Procedure: (§2) Assessment of pharmacodynamics included evaluation of cullin-NEDD8, p27^Kip1 protein expression, and cytokines in peripheral blood samples. Expression of cullin-NEDD8 protein in peripheral blood mononuclear cells (PBMC) was analyzed using an enzyme-linked immunosorbent assay (ELISA). For the weekly dosing cohorts, changes from baseline in cullin-NEDD8 complexes in the PBMC on Day 1 and Day 2 of Cycle 1 as measured by ELISA were evaluated. For the weekly dosing with lead-in period cohorts, changes from baseline in cullin-NEDD8 complexes on Day 2 were evaluated. Expression of p27^Kip1 protein (cyclin-dependent kinase inhibitor 1B), a substrate of CRL, was determined by immunohistochemistry (IHC). p27^Kip1 IHC was performed on biopsy tumor specimens collected at baseline and Day 2 of Cycle 1, and their staining intensities were assessed using H-Scoring, with the scores compared between baseline and Day 2 of Cycle 1. […]

[5] = system: p27^Kip1 protein expression; experiment: p27^Kip1 immunohistochemistry in biopsy tumor specimens; type: in vivo, human; settings: Day 2 of Cycle 1, three patients; data not shown
Procedure: as §2

[6] = system: NAE; settings: compared with MLN4924; cited from earlier work
[7] = system: tumor cell lines; settings: cited from earlier work
[8] = system: hematologic and solid tumor xenograft models; settings: cited from earlier work
[9] = system: nuclear factor κB (NFκB) activation; design: method as in PMID 31583781; settings: multiple myeloma models; cited from earlier work
[10] = system: dog; design: method as in unpublished data; settings: TAS4464 without a N,N-dimethylacetamide group; ref unpublished data; cited from earlier work
[11] = design: method as in unpublished data; settings: TAS4464 combined with TNF-α; ref unpublished data; cited from earlier work
[12] = plasma, multiple doses, data not shown

CCOc1cccc(F)c1C#Cc1cn([C@@H]2O[C@H](CNS(N)(=O)=O)[C@@H](O)[C@H]2O)c2ncnc(N)c12 [TAS4464]
MTD ([1]; weekly dosing regimen): could not be determined | DLT incidence (grade 3 ALT increased and grade 3 AST increased) ([1]; weekly dosing with lead-in period, dose level 4 (56 mg/m^2)): 1/5 | DLT incidence (grade 4 ALT increased) ([1]; weekly dosing, dose level 4 (56 mg/m^2), DLT-evaluable population): 1/5 and one of five patients | dose dependence of Cmax and AUC ([2]; dose range of 10–56 mg/m^2): generally increased with increasing dose | accumulation ratio of AUC0-last [R (AUC0-last)] [2, 12]: ~1.0 | accumulation ratio of Cmax [R (Cmax)] [2, 12]: ~1.0 | mean and individual CL and Vdss by OATP1B1 phenotype [3]: no obvious differences were observed | cullin-NEDD8 complex measurements in PBMC versus baseline ([4]; Day 1 of Cycle 1, no dose-dependency): lower than those at baseline in all patients | cullin-NEDD8 complex measurements in PBMC versus baseline ([4]; Day 2 of Cycle 1, dose dependency not observed): lower than those at baseline, with the exception of two patients | expression of p27^Kip1 in tumor specimens versus baseline [5]: almost unchanged or decreased | inhibitory effects in enzyme assays [6]: greater inhibitory effects than MLN4924 | inhibitory effects in cells ([7]; compared with MLN4924): greater inhibitory effects than MLN4924 | time course of antiproliferative effects ([7]; dose- and time-dependent increase): plateauing after 24 h | antitumor effects ([8]; several hematologic and solid tumor xenograft models): promising antitumor effects | weight loss ([8]; xenograft models): without notable weight loss | mechanism of antitumor activity [9]: inhibition of nuclear factor κB (NFκB) activation | toxic liver findings [10]: toxic liver findings were not observed | abnormal liver function tests [11]: Abnormal liver function tests were also observed
